Results on 91 molecules are retold here after a melting point compilation (Tetko et al.; mined from patent text by program, amines drawn as free bases though some values may be those of a salt).

As for `CCCCCN1C(=O)C(NC(=O)C2CCc3ccccc3C2)c2ccccc21` (stereo unspecified), the melting point was in the range of 127 to 132 °C.

On to `CCc1cc(Nc2ccc(Sc3ccncc3)cc2)nc(N)n1`, for which the melting point was 181 to 186 °C. For `N#Cc1cccc(-c2ccc3c(c2)C2(CCCC2)C(=O)N3)c1`, the melting point is 217 to 219 °C. The figure for `CCCCCCCCCCCCCCCCCC(=O)NCC(C)(C)COC(=O)CCc1cc(C(C)(C)C)c(O)c(C(C)(C)C)c1` is 44 °C. Consider `CC(=O)OC1C(C)OC(OC(=N)C(Cl)(Cl)Cl)C(OC(C)=O)C1OC(C)=O` (stereo unspecified), for which the melting point lay within 60 to 63 °C. The molecule `CC(C)C[C@H](NC(=O)CCc1ccccc1)C(=O)O` registered a melting point of 129 to 130 °C. Molecule `O=C1c2ccc(Sc3ccc4c(c3)C(=O)N(c3ccccc3)C4=O)cc2C(=O)N1c1ccccc1` came in with a melting point of 275 to 280 °C.

Molecule `O=C(O)c1cc(-n2c(-c3ccccc3)cc3c2CCCC3)c(C(F)(F)F)cc1O` came in with a melting point of 188 to 190 °C.

With `Nc1cccc2c1CC(O)CC2` (stereo unspecified), the melting point is 88 to 91 °C. Turning to `N#Cc1cnn(CCCl)c1N`, the melting point worked out at 156 °C. Regarding `O=C(O)C1=COCC(C(=O)O)=C1`, the melting point was in the range of 87 to 90 °C. `N#Cc1c(N2CCCSCC2)cc[nH]c1=S` had a melting point of 265 to 270 °C. Molecule `Nc1ccc(-c2cnns2)cc1` returned a melting point of 126 to 128 °C. `COc1cccc([C@@H]2CC[C@H](c3cccc(O)c3)N2C(=O)CNC(=O)Nc2cccc(C(=O)O)c2)c1` (relative stereo) showed a melting point of 172 °C. On to `COc1ccc(-c2ccc3cc(C(=O)O)ccc3c2)cc1C12CC3CC(CC(C3)C1)C2`, for which the melting point came to 321 °C. `CCN(CC)c1cc2cnnn2c(C)n1` returned a melting point of 57 to 58 °C.

In turn, `COC(=O)c1sccc1S(=O)(=O)NC(=O)Nc1nc(OC)cc(OC)n1` showed a melting point of 191 to 193 °C. As for `O=C1N(Cc2ccc3nonc3c2)c2ccccc2C12COc1cc3c(cc12)CCO3` (stereo unspecified), the melting point is 169 to 171 °C. With `COc1cc(OC)c(S(=O)(=O)Cl)c(OC)c1`, the melting point lay in the range of 126 to 129 °C. The figure for `O=c1ccn(-c2cccc3c2OC(F)(F)O3)nc1-c1ccnn1-c1ccccc1` is 105 to 107 °C.

Molecule `CCOC(=O)N(CCNc1ccc2ncc(-c3ccc(C(N)=O)cc3)n2n1)c1ccccc1` had a melting point of 227 to 228 °C. In turn, `CNc1nc(NCc2ccc(NC(=O)C3CCN(Cc4ccccc4)CC3)cc2)c2ccc(C)cc2n1` showed a melting point of 128 °C. For `CCCc1nc2c(N)nc3ccccc3c2n1CCCCCC(=O)OCC`, the melting point lay within 112 to 113 °C. Regarding `COc1ccccc1CNc1cccnc1Cl`, the melting point lay within 121 to 125 °C.

`O=C1N(N2CCOCC2)c2ccccc2C1(Cc1ccnc(F)c1)c1ccccc1` (stereo unspecified) registered a melting point of 170 to 172 °C.

Turning to `O=Cc1ccc(C(=O)NCC(F)(F)F)cc1`, the melting point lay within 83 to 84 °C.

As to `CCOc1ccc2[nH]c(SCc3cccn4ccnc34)nc2c1`, the melting point was in the range of 157 to 160 °C. `CCOc1cccc2c1c(=O)n(C)c1c(-c3noc(C4CC4)n3)ncn21` had a melting point of 195 to 205 °C. Molecule `O=Cc1ccc(OC[C@H]2CO2)cc1` yielded a melting point of 32 °C.

`CCOC(=O)[C@H](Cc1ccc(-c2c(OC)cc(CCO)cc2OC)cc1)NC(=O)c1c(F)cccc1F` had a melting point of 115 to 117 °C. `CCCc1nc(S(=O)(=O)Nc2ccccc2Br)nn1-c1ccccc1` gave a melting point of 119 to 121 °C. The molecule `O=C(NO)c1ccc(CNC(=O)c2[nH]c(-c3cccs3)cc2-c2ccc(F)cc2)cn1` came in with a melting point of 189 to 191 °C. With `NC(=O)c1cc([N+](=O)[O-])ccc1I`, the melting point was in the range of 230 to 233 °C. Consider `Cc1cc2occc2cn1`, for which the melting point was 55 to 56 °C.

Take `Cc1cn(C2CC(O[Si](C)(C)C(C)(C)C)C(CO)O2)c(=O)[nH]c1=O` (stereo unspecified): the melting point fell in the range of 93 to 95 °C. For the molecule `CCOC(=O)c1ncc2[nH]c3ccc(C(=O)N4CCCCC4)cc3c2c1C`, the melting point lay in the range of 212 to 218 °C. `CCOC(=O)C=C1CSC2=C1SCC=NC2` had a melting point of 86 to 87 °C. Take `Cc1c2c(cn1CC(N)=O)CN=C(c1ccccc1Cl)c1cc(Cl)ccc1-2`: the melting point is 142 to 145 °C.

Turning to `CCCCCCCCCCCCCCCCCC(=O)OC1CC(C)(C)N(OC(C)=O)C(C)(C)C1`, the melting point was 63 to 70 °C. `COC(=O)c1cc2[nH]nc(N)c2s1` had a melting point of 218 to 220 °C. `OCc1cccc(-c2cccc(F)c2)c1-c1cccc(F)c1` gave a melting point of 114 to 116 °C. Turning to `CCC(=O)C(CCCCCCOc1ccc(OC)cc1)C(=O)CC`, the melting point was 50 to 51 °C. The figure for `COC(=O)C(C)(Cc1ccc(Cl)nc1)C(=O)OC` is 80 to 81 °C. As to `Cc1c(C)c2c(c(C)c1NC(=O)CC(C)(C)C)C(c1ccc(C3OCCO3)cc1)CO2` (stereo unspecified), the melting point lay in the range of 193 to 194 °C. As for `CCOC(=O)CCC(C)c1ccc(O)cc1` (stereo unspecified), the melting point lay in the range of 32 to 34 °C.

Consider `OCc1ccccc1-c1ccccc1CO`, for which the melting point fell in the range of 98 to 103 °C.

`COC(=O)/C=C/c1ccc(CC(C)NCC(O)c2cccc(Br)c2)cc1` (stereo unspecified) showed a melting point of 105 to 111 °C. As for `CCOCCOc1ccc(-c2nc(-c3ccc(OC)cc3)nc(-c3ccc(OCCOCC)cc3O)n2)c(O)c1`, the melting point was in the range of 155 to 158 °C. `CCNC(=O)NSC(=S)N(C)C`: the melting point fell in the range of 173 to 175 °C. `N#Cc1cc2cc(Br)ccc2[nH]c1=O` showed a melting point of 308 to 311 °C. To `O=C1c2ccccc2C(=O)N1CC#Cc1ccc2c(c1)C(c1ccccc1F)=NCc1nnc(C(F)(F)F)n1-2` belongs 204 to 206 °C. `N#CCN1CCN(c2n[nH]c3ccccc23)CC1` returned a melting point of 121 to 123 °C. As for `CCCCN(c1nc(N2CCOCC2)nc(N(CCCC)C2CC(C)(C)N(OC3CCCCC3)C(C)(C)C2)n1)C1CC(C)(C)N(OC2CCCCC2)C(C)(C)C1`, the melting point was in the range of 159 to 163 °C.

`CC(C)(C)c1cc(C(Cl)Cl)c(Cl)c(C(C)(C)C)c1O` displayed a melting point of 176 to 177 °C. `CCC(C)(C)N1C(=O)C2(COc3cc4c(cc32)CCO4)c2ccccc21` (stereo unspecified) displayed a melting point of 128 to 129 °C. The figure for `CS(=O)(=O)c1cc(-c2ccccc2)ncn1` is 109 to 111 °C.

For `Cn1cc(C(=O)Nc2ccccc2-c2ccc(C(F)(F)F)cc2)c(C(F)F)n1`, the melting point was 164 to 165 °C.

Take `COc1cc2c(cc1OC)C(C=NO)c1ccccc1CC2` (stereo unspecified): the melting point fell in the range of 176 to 177 °C. In turn, `CCOC(=O)C(=NOC)c1nc(N)cc(Sc2ccccc2)n1` displayed a melting point of 154 to 156 °C. `CCN(CCCCc1coc2ccccc12)C[C@H]1COc2ccc3nc(C)ccc3c2O1` registered a melting point of 87 to 92 °C. `CCCC1CCC(C)C(CCC2CC(O)CC(=O)O2)C1COC(=O)C(C)(C)CC` (stereo unspecified) yielded a melting point of 128 to 130 °C. To `N#CC1CCN(CCc2ccc(F)cc2)CC1` belongs 47 to 48 °C; to `CC1(C)Oc2ccc(C#N)cc2C(Oc2ccc(O)nn2)C1O` (stereo unspecified), 232 to 233 °C; to `CCCOC(=O)C1=C(C)N(C)C(C)=C(C(=O)OCCC)C1c1ccc(Br)cc1`, 97 to 99 °C.

In the case of `O=C1C(CCO)Oc2cc([N+](=O)[O-])ccc2N1Cc1ccccc1` (stereo unspecified), the melting point was 102 to 105 °C. Molecule `CCN(CC)C(C)(C)CNC1(c2ccccc2Cl)C(=O)Nc2ccc(Cl)cc21` (stereo unspecified) displayed a melting point of 174 °C.

`O=C(Nc1cc(F)c(-c2ccncc2)c(F)c1)OCc1ccccc1` gave a melting point of 185 to 186 °C. Molecule `Cn1ccc(O)cc1=O` returned a melting point of 165 to 169 °C. The molecule `COc1ccc(C2=NNS(=O)(=O)Cc3cc4nsnc4cc32)cc1OC` showed a melting point of 228 to 230 °C. `CCc1nc(/C=C/c2cn(-c3ccccc3)nc2OCc2ccc(OCc3nc(-c4cccc(C(=O)NS(C)(=O)=O)c4)oc3C)c(OC)c2)cs1` yielded a melting point of 211 to 213 °C. The figure for `O=C(Cl)COc1ccc([N+](=O)[O-])cc1` is 84 to 85 °C; for `CCCCCCCOc1ccc(CNc2ccc(C(=O)O)cc2)cc1` it is 148 to 152 °C. Regarding `Cc1nc(-c2ccc3c(c2)CCCC3)c(CO)o1`, the melting point lay in the range of 132 to 133 °C. `Cc1nc2c(OC3CCc4ccccc43)nccc2n1C` (stereo unspecified) came in with a melting point of 164 to 165 °C. The molecule `C=CCOc1ccc(-c2ccc(C(=O)O)cc2)cc1` yielded a melting point of 360 °C. Molecule `CC(C)[C@H](NC(=O)OCc1ccccn1)C(=O)N[C@@H](Cc1ccccc1)[C@@H](O)C[C@H](Cc1ccccc1)NC(=O)OCc1cccnc1` showed a melting point of 169 to 171 °C.

The molecule `CCC(CC)C(=O)C(C1CCc2ccccc2N1)N1CCN(c2cccc3[nH]ccc23)CC1` (stereo unspecified) yielded a melting point of 145 to 148 °C.

For the molecule `O=c1c(-c2ccccc2)c(CSc2ncnc3[nH]cnc23)oc2ccc(Br)cc12`, the melting point lay in the range of 214 to 218 °C. `CC(C)Oc1ccc(CCCOc2cc(CCC(=O)O)n(C)n2)c(Oc2ncc(C(F)(F)F)cc2Cl)c1` had a melting point of 88 to 89 °C. To `CC(CNc1ccc(Cl)cc1)COc1ccc(C(=O)O)cc1` (stereo unspecified) belongs 148 to 150 °C; to `CC(C)c1ccccc1Sc1c(O)cc(-c2cc(Cl)cc(Cl)c2)oc1=O`, 168 to 169 °C. For `COCC1=C(C(=O)OC)C(c2ccc(Br)cc2)C(C(=O)OC)=C(COC)N1`, the melting point lay within 162 to 163 °C. Take `NS(=O)(=O)c1cccnc1OC1CCCC1`: the melting point was in the range of 134 to 135 °C. For the molecule `Cc1ccc2c(c1)C=Cc1cc(C)ccc1C2c1cn(-c2ccnc(NC(Cc3c[nH]cn3)C(=O)O)n2)c(=O)[nH]c1=O` (stereo unspecified), the melting point amounted to 223 °C. With `Cc1nnc2ccc(-c3cccnc3)cn12`, the melting point was 199 to 202 °C. With `O=S(=O)(c1ccccc1)C1CCCC2(C1)OCCO2` (stereo unspecified), the melting point fell in the range of 93 to 95 °C.

In the case of `COc1ccc(C(OC(C)=O)c2sccc2C=O)cc1OC` (stereo unspecified), the melting point is 91 to 92 °C. On to `O=C(O)CNC(=O)Nc1ccc(Cl)cc1`, for which the melting point was 218 °C. `CCCCCCCCCCCCc1ccc(S(=O)(=O)Nc2nnc(CC)s2)cc1` came in with a melting point of 93 to 94 °C. To `COc1ccc2cc([C@H](C)C(=O)OCCN(CCO[N+](=O)[O-])S(=O)(=O)c3ccc(C)cc3)ccc2c1` belongs 92 to 95 °C; to `COc1c(C=Cc2ccccc2)cc(C(C)(C)C)cc1C=Cc1ccccc1`, 129 to 130 °C.
